According to the supplement of paper PMC12076712:

Columns and labels:
Experiment in all cases: pIC50, kinobeads binding competition
[1] = biological target: CAMK2G (UniProt Q13555)
How it was run: (§1)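 Live Jurkat cells were treated with nine compound concentrations (top 30 μM, 1:4 steps) or DMSO for 60 min at 37 °C before lysis. Alternatively, Jurkat lysate or a 1:1:1:1 HEK293/K-562/HepG2/placenta lysate mix was incubated with nine concentrations (top 30 μM, 1:5 steps) for 60 min at 4 °C. Kinobeads-bound proteins were digested and quantified by TMT10 LC-MS/MS. pIC50 came from logistic dose-response fits (R drc package) of fold changes versus DMSO, in biological duplicates.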

[2] = biological target: T1, EPHB4 (UniProt P54760); conditions: cell material: Lysate mix
T1 sequence (whole entry): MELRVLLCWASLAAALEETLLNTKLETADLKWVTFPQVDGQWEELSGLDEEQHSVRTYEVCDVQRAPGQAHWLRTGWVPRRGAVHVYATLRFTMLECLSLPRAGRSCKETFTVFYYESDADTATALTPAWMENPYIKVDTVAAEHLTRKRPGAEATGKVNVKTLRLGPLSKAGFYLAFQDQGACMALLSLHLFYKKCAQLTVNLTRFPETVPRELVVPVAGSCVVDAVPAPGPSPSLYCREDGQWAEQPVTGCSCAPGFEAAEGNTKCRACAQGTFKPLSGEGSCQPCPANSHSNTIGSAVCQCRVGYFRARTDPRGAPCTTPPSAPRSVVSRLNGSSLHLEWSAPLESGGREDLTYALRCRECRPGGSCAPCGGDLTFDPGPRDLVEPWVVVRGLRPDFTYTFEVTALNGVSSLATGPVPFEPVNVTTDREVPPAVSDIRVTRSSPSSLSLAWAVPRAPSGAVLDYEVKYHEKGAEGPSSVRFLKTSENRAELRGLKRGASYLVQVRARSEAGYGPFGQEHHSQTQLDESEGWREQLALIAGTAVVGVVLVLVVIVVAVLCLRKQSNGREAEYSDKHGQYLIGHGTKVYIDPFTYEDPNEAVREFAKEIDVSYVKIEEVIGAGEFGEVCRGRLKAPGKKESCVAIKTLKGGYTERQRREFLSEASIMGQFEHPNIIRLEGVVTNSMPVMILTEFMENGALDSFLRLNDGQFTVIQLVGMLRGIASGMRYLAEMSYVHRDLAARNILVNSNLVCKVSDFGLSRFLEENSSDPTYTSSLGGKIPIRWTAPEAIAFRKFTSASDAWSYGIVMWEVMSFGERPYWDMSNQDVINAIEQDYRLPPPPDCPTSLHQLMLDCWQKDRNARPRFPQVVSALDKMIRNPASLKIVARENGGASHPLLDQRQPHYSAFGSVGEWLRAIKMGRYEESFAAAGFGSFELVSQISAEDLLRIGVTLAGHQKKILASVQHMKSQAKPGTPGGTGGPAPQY
How it was run: as §1

[3] = biological target: T2, TGFBR1 (UniProt P36897)
T2 sequence (whole entry): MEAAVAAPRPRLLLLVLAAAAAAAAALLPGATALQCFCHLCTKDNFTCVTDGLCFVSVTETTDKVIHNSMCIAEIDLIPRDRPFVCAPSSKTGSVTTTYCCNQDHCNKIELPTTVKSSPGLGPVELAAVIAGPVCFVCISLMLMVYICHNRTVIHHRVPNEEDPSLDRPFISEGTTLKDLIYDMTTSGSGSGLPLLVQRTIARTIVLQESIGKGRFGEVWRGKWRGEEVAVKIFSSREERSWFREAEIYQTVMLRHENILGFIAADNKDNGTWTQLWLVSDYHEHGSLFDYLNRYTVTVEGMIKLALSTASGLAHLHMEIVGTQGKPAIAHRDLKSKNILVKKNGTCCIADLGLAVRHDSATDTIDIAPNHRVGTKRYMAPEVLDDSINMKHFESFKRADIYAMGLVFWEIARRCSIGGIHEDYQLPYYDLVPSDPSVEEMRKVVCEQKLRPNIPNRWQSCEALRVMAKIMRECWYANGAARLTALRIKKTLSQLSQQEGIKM
How it was run: as §1

[4] = biological target: T3, UniProt O60285; conditions: cell material: Lysate mix
T3 sequence (whole entry): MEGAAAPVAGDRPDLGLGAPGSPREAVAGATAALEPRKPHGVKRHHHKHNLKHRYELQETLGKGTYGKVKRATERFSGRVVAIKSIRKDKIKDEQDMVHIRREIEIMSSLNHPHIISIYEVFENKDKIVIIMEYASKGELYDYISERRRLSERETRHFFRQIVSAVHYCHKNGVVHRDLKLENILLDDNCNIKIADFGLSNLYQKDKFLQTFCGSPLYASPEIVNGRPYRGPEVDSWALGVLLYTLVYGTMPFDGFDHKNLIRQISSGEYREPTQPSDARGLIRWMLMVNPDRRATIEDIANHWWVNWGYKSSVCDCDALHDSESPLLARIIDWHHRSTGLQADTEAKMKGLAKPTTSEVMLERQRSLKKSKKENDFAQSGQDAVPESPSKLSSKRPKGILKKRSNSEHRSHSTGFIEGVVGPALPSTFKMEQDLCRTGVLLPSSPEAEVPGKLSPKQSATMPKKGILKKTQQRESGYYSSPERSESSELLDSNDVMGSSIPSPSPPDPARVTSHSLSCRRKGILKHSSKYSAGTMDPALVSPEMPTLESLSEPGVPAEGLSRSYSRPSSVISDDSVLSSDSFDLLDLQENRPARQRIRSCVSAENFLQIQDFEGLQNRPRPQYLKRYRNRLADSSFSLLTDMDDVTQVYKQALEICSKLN
How it was run: as §1

[5] = biological target: UniProt Q92918
How it was run: as §1

UniProt Q92918, sequence (Q92918 whole entry, looked up): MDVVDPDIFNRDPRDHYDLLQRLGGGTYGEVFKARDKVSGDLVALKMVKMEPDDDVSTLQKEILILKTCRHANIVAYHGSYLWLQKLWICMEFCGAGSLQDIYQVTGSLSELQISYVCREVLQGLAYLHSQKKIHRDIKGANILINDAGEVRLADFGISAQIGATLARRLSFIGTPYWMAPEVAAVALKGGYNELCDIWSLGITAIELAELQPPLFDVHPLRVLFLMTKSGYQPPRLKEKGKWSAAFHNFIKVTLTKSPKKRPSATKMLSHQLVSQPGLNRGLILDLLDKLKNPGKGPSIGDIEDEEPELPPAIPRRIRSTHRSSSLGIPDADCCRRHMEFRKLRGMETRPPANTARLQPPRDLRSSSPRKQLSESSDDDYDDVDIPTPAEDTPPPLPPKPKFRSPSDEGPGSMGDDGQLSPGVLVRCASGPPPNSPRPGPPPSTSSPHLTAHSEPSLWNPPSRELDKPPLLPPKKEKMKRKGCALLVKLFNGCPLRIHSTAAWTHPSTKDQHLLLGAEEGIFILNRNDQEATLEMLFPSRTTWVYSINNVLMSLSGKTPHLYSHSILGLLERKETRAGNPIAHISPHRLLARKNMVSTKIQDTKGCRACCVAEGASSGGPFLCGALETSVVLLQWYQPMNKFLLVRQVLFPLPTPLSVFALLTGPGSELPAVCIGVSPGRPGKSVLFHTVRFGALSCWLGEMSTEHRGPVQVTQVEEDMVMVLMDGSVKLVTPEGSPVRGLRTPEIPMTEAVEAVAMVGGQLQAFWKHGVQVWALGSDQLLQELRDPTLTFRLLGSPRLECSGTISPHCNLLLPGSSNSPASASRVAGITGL
CAMK2G, sequence (Q13555 whole entry): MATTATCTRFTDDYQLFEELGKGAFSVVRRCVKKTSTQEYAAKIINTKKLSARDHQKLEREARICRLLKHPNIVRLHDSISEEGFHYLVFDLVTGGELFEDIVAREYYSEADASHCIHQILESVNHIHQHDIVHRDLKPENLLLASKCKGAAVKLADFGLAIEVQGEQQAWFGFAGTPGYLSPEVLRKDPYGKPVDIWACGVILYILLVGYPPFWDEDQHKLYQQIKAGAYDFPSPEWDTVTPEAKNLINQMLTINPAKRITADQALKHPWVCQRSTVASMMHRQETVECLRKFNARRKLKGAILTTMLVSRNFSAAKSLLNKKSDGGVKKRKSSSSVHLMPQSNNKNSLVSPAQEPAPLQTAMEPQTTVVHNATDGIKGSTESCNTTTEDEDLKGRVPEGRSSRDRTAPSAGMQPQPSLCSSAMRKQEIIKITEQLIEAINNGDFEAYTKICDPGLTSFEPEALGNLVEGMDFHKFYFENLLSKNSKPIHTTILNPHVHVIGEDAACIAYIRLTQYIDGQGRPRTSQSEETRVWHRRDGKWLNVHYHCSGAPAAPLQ

Row | Structure (SMILES) | pIC50 ([1]; cell material: Lysate mix) | pIC50 [2] | pIC50 ([3]; cell material: Lysate mix) | pIC50 [4] | pIC50 ([5]; cell material: Lysate mix) | pIC50 ([1]; cell material: Jurkat cells) | pIC50 ([1]; cell material: Jurkat lysate) | pIC50 ([3]; cell material: Jurkat cells) | pIC50 ([3]; cell material: Jurkat lysate) | pIC50 ([5]; cell material: Jurkat cells) | pIC50 ([5]; cell material: Jurkat lysate)
1 | CCNC(=O)c1cc(Nc2cc(C)[nH]n2)nc(N2CCN(Cc3ccc(S(=O)(=O)F)cc3)CC2)n1 | < 4.52 | < 4.52 | 4.78 | < 4.52 | 4.78 |  |  |  |  |  | 
2 | CCNC(=O)c1cc(Nc2cc(C3CC3)[nH]n2)nc(N2CCN(Cc3ccc(S(=O)(=O)F)cc3)CC2)n1 | < 4.52 | < 4.52 | 5.41 | 4.98 | 5.8 |  |  |  |  |  | 
3 | Cc1cc(Nc2cc(C(=O)NCCNC(=O)OC3CC/C=C/CCC3)nc(N3CCN(Cc4ccc(S(=O)(=O)F)cc4)CC3)n2)n[nH]1 (configuration not stated) | < 4.52 | < 4.52 | < 4.52 | < 4.52 | < 4.52 |  |  |  |  |  | 
4 | C#CCNC(=O)c1cc(Nc2cc(C3CC3)[nH]n2)nc(N2CCN(Cc3ccc(S(=O)(=O)F)cc3)CC2)n1 | < 4.52 | < 4.52 | 5.46 | 4.83 | 5.9 | 5.13 | < 4.52 | 5.75 | 4.84 | 5.88 | 5.35
5 | C#CCNC(=O)c1cc(Nc2cc(C)[nH]n2)nc(N2CCN(Cc3ccc(S(=O)(=O)F)cc3)CC2)n1 | < 4.52 | < 4.52 | 4.71 | < 4.52 | 4.77 |  |  |  |  |  | 
6 | O=C(NCCNC(=O)c1cc(Nc2cc(C3CC3)[nH]n2)nc(N2CCN(Cc3ccc(S(=O)(=O)F)cc3)CC2)n1)OC1CC/C=C/CCC1 (configuration not stated) | < 4.52 | < 4.52 | < 4.52 | < 4.52 | < 4.52 | < 4.52 | < 4.52 | 4.81 | < 4.52 | 5.32 | < 4.52
